“Also recorded” adds a separate entry of the source.
Assays:
[1] = tested on: R. flavipes worker termites; assay: Validative feeding bioassays with mono- and di-saccharides; format: in vivo; conditions: no-choice tests; concentrations tested 0.004-3.0% wt/wt; FIG. 12A
[2] = tested on: Formosan Subterranean Termite β-glucosidases; conditions: after feeding; Zhu et al.; cited from earlier work
R. virginicus = conditions: choice tests; Waller et al.; cited from earlier work
R. flavipes = conditions: choice tests; Waller et al.; cited from earlier work

Row | Compound | feeding stimulation [1] | inhibition [2] | consumption of treated paper substrates versus untreated controls (R. virginicus) | consumption of treated paper substrates versus untreated controls (R. flavipes)
1 | OC[C@H]1O[C@H](O[C@H]2[C@H](O)[C@@H](O)C(O)O[C@@H]2CO)[C@H](O)[C@@H](O)[C@@H]1O (mixture of isomers) [maltose] | generally a feeding deterrent; also recorded: no significant feeding stimulation | – | – | –
2 | COc1cc(C=CC(=O)O)cc(OC)c1O (stereo in doubt) [sinapinic acid] | – | completely ineffective | – | –
3 | O=C[C@H](O)[C@@H](O)[C@H](O[C@@H]1O[C@H](CO)[C@@H](O)[C@H](O)[C@H]1O)[C@H](O)CO [cellobiose] | no significant feeding stimulation | – | – | –
4 | OC[C@H]1O[C@@](CO)(O[C@H]2O[C@H](CO)[C@@H](O)[C@H](O)[C@H]2O)[C@@H](O)[C@@H]1O [sucrose] | – | – | consumed more paper substrates | consumed more paper substrates
5 | O=C[C@H](O)[C@@H](O)[C@H](O)CO [xylose] | – | – | consumed more paper substrates | consumed more paper substrates

— patent US20080107619A1, “Carbohydrate based cellulase inhibitors as feeding stimulants in termites” (University of Florida Research Foundation, Inc., priority 2006, published 2008)
